The source of these data is US12116424B2, “Compounds and compositions for modulating Listeria virulence” (priority 2021, dated 2024).

This test concerns the target L. monocytogenes AgrC (Listeria monocytogenes serovar 1/2a, UniProt Q8YAR5). The experiment in a line: Fluorescence (agr-GFP) reporter agonism assay, ΔagrD reporter strain. In kind it is cell-based. More on the design: Emax: dose or concentration left out as unconfirmed. From the text: Construction of Listeria agr Reporter Strains. A gene block was designed and purchased from Integrated DNA Technologies to contain an EagI recognition site, the PII promoter of the agr system, the 3′ UTR of hly, super folder GFP, and a SaII recognition site. The gene block was digested with EagI and SaII, cloned into an EagI/SaII-cut pAM401 plasmid resulting in the plasmid pAM401-KW1, and then transformed into E. coli XL1-Blue competent cells. The insertion into pAM401 was confirmed using Kapa polymerase and primers DAP337 and DAP338, and additional confirmation via commercial sequencing. Purified plasmid was transformed into the conjugative E. coli S17 strain, which was used to conjugate to EGD-e and EGD-e ΔagrD to generate the agr-GFP reporter strains EGD-e:pAM401-KW1 and EGD-e ΔagrD:pAM401-KW1. Conjugation was verified using primers DAP337 and DAP338.
Fluorescence reporter assay protocol. For QS (agr) reporter assays, peptide stock solutions in DMSO (1 mM) were serially diluted in DMSO, and 2 μL of solution was added to each well in a black 96-well plate (polystyrene microtiter plate, Costar). Agonism assays utilized the ΔagrD reporter strain, with 2 μL of 100 μM AIP (final concentration 1 μM) as a positive control and 2 μL of DMSO as a negative control. Antagonism assays utilized the EGD-e reporter strain, with 2 μL of DMSO as a positive control. In both assays, wells containing only BHI media served as negative controls for normalization. An overnight culture of bacteria was diluted 1:50 in fresh BHI, then 198 μL were transferred to each well (excluding the media control wells). Plates were then incubated at 37° C. for 24 hours with shaking at 200 rpm. Fluorescence of GFP (excitation at 500 nm, emission at 540 nm) and OD600 of each well was measured using BioTek Synergy 2 plate reader. Measurements were processed by subtracting background fluorescence (BHI media), correcting by OD600, and the normalizing using the 1 μM AIP or the DMSO control for the agonism and antagonism assays, respectively. Non-linear regression curves were fitted to the data sets in GraphPad Prism 7 by using variable slope (four-parameter) dose-response analysis to obtain potency, efficacy, and statistical information about the activity of tested peptides. Each peptide was tested with three technical replicates and three biological replicates. All data derived from fluorescent reporter strains are represented with data points signifying the mean and error bars signifying the standard deviation from all replicates.
Preparation and Validation of Listeria agr Reporter Strains. In order to facilitate profiling the native AIP and its analogs for agr activity, L. monocytogenes agr GFP reporters were designed and constructed as described above (see Materials and General Methods). Briefly, a plasmid containing the agr promoter region upstream of gfp was transformed into wild-type (EGD-e) and ΔagrD L. monocytogenes strains. The wild-type reporter naturally produces its own AIP and is able to activate AgrC, which may subsequently phosphorylate AgrA for productive binding to DNA and triggering the production of GFP (FIG. 1A). The ΔagrD reporter, lacking the ability to produce its own AIP and thereby activate AgrC, is unable to trigger substantial production of GFP. However, adding exogenous AIP to the ΔagrD reporter results in an increase of fluorescence, indicating agr activity has been restored.

The mark [1] stands for this setting: read-out: Max Activation Observed.

Like-named read-outs stand apart in the source and are kept apart here. Where a SMILES comes first, the peptide text is derived from it. Bridges are numbered along the chain shown (N, C = ends). [ ]: non-standard residue; d: D form.

L. monocytogenes AgrC, sequence (Q8YAR5 entry or part of it): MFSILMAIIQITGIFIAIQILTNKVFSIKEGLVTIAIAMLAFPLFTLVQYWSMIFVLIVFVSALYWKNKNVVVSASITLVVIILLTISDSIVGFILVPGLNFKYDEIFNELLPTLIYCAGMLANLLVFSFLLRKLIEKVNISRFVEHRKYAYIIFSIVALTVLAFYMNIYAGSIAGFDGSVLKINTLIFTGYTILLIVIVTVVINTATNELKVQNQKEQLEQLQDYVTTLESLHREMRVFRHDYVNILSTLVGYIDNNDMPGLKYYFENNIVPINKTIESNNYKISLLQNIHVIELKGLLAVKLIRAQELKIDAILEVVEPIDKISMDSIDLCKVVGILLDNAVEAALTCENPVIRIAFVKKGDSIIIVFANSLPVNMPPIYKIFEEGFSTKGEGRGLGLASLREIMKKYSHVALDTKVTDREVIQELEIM

In the case of `CC[C@H](C)[C@H](N)C(=O)N[C@@H](CC(N)=O)C(=O)N[C@H]1CSC(=O)[C@H](CC(C)C)NC(=O)[C@H](CC(C)C)NC(=O)[C@H](Cc2ccccc2)NC(=O)[C@H](CC(=O)O)NC1=O` [Sa AIP-III, I-N-(C-D-F-L-L), reference compound] (H-INCDFLL; thioester 3-C), the Emax (read-out: Max Activation) amounted to 11.3%.
In the case of `CSCC[C@@H]1NC(=O)[C@H](Cc2ccccc2)NC(=O)[C@@H](NC(=O)[C@@H]2CCCN2)CSC(=O)[C@H](C(C)C)NC(=O)[C@H](Cc2ccccc2)NC1=O` [AIP A1P, P-(C-F-M-F-V)] (H-PCFMFV; thioester 2-C; N-terminus assumed), the Emax under setting [1] was found to be 76.8%. Further, the “agonism activity (in words)” value (ΔagrD reporter) is recorded as “partial agonists with slightly diminished agonistic activity”.
In the case of `CSCC[C@H](NC(=O)[C@H](CO)NC(=O)[C@H](CO)NC(=O)[C@H](CC(=O)O)NC(=O)[C@H](C)N)C(=O)N[C@@H](CO)C(=O)N[C@@H](CCCCN)C(=O)N[C@@H](C)C(=O)N[C@H]1CSC(=O)[C@H](C(C)C)NC(=O)[C@H](Cc2ccccc2)NC(=O)[C@H](CCSC)NC(=O)[C@H](Cc2ccccc2)NC1=O` [Compound 13-mer, A-D-S-S-M-S-K-A-(C-F-M-F-V)] (H-ADSSMSKACFMFV; thioester 9-C; N-terminus assumed), the Emax (read-out: Max Activation) amounted to 108%.
Take `CC[C@H](C)[C@@H]1NC(=O)[C@H](CC(C)C)NC(=O)[C@H](Cc2ccccc2)NC(=O)[C@@H](NC(=O)[C@@H](N)CO)CSC(=O)[C@H](Cc2ccccc2)NC1=O` [L. newyorkensis AIP, S-(C-F-L-I-F), reference compound] (H-SCFLIF; thioester 2-C; N-terminus assumed): the “agonism or antagonism activity compared to vehicle (FIG. 1B)” value (10 μM, wild-type reporter or ΔagrD reporter) was “minimal efficacy”. The Emax (read-out: Max Activation) was found to be 23.6%.
In the case of `CSCC[C@@H]1NC(=O)[C@H](Cc2ccccc2)NC(=O)[C@H](NC(=O)[C@H](C)N)CSC(=O)[C@H](C(C)C)NC(=O)[C@H](Cc2ccccc2)NC1=O` [AIP C2dC, A-(dC-F-M-F-V)] (H-A[dC]FMFV; thioester 2-C; N-terminus assumed), where the note is “agonism, relative to native AIP”, the loss in potency result is “three-fold”. Also, the Emax under setting [1] worked out at 41%. Moreover, the “agonism activity (in words)” value (ΔagrD reporter) is reported as “lost a substantial amount of agonism activity”.
`CSCC[C@H](NC(=O)[C@H](CO)NC(=O)[C@H](CO)NC(=O)[C@H](CC(=O)O)NC(=O)[C@H](C)NC(=O)[C@@H](NC(=O)[C@@H](N)CCCCN)C(C)C)C(=O)N[C@@H](CO)C(=O)N[C@@H](CCCCN)C(=O)N[C@@H](C)C(=O)N[C@H]1CSC(=O)[C@H](C(C)C)NC(=O)[C@H](Cc2ccccc2)NC(=O)[C@H](CCSC)NC(=O)[C@H](Cc2ccccc2)NC1=O` [Compound 15-mer, K-V-A-D-S-S-M-S-K-A-(C-F-M-F-V)] (H-KVADSSMSKACFMFV; thioester 11-C; N-terminus assumed): the Emax (read-out: Max Activation) is 122%.
With `CSCC[C@@H]1NC(=O)[C@H](Cc2ccccc2)NC(=O)[C@@H](NC(=O)[C@H](C)N)CSC(=O)[C@H](C(C)C)NC(=O)[C@H](Cc2c[nH]c3ccccc23)NC1=O` [AIP F5W, A-(C-F-M-W-V)] (H-ACFMWV; thioester 2-C; N-terminus assumed), the Emax under setting [1] was determined as 85.8%.
Same read-out and setting: the value for `CSCC[C@@H]1NC(=O)[C@H](Cc2ccccc2)NC(=O)[C@H](NC(=O)[C@H](C)NC(=O)[C@@H](N)CCCCN)CSC(=O)[C@H](C(C)C)NC(=O)[C@H](Cc2ccccc2)NC1=O` [7-mer C3dC, K-A-(dC-F-M-F-V)] (H-KA[dC]FMFV; thioester 3-C; N-terminus assumed) was 7.08%; that for `CSCC[C@@H]1NC(=O)[C@H](Cc2ccccc2)NC(=O)[C@H](NC(=O)[C@@H](N)CCCCN)CSC(=O)[C@H](C(C)C)NC(=O)[C@H](Cc2ccccc2)NC1=O` [AIP A1K/C2dC, K-(dC-F-M-F-V)] (H-K[dC]FMFV; thioester 2-C; N-terminus assumed) was 10.2%.
Still for that read-out and setting: the result for `CSCC[C@@H]1NC(=O)[C@H](Cc2ccccc2)NC(=O)[C@@H](NC(=O)[C@H](C)N)CSC(=O)[C@H](C(C)C)NC(=O)[C@H](Cc2ccc(O)cc2)NC1=O` [AIP F5Y, A-(C-F-M-Y-V)] (H-ACFMYV; thioester 2-C; N-terminus assumed) reads 44.4%.
As to `CC[C@H](C)[C@@H]1NC(=O)[C@H](Cc2ccccc2)NC(=O)[C@H](CC(=O)O)NC(=O)[C@@H](NC(=O)[C@@H](NC(=O)[C@H](CO)NC(=O)[C@@H](N)Cc2ccc(O)cc2)[C@@H](C)O)CSC(=O)[C@H](CCSC)NC1=O` [Sa AIP-I, Y-S-T-(C-D-F-I-M), reference compound] (H-YSTCDFIM; thioester 4-C), the Emax (read-out: Max Activation) was 12.2%.
In the case of `CC(C)[C@@H]1NC(=O)[C@H](Cc2ccccc2)NC(=O)[C@H](C)NC(=O)[C@H](Cc2ccccc2)NC(=O)[C@@H](NC(=O)[C@H](C)N)CSC1=O` [AIP M4A, A-(C-F-A-F-V)] (H-ACFAFV; thioester 2-C; N-terminus assumed), the Emax under setting [1] was 53.5%. Where the note is “ΔagrD reporter”, the “EC50 (in words)” value is on record as “low micromolar range”; the “agonism activity (in words)” value is “decreased potency and agonism compared to the native AIP”.
On to `CSCC[C@@H]1NC(=O)[C@H](Cc2ccccc2)NC(=O)[C@@H](NC(=O)[C@@H](N)C(C)C)CSC(=O)[C@H](C(C)C)NC(=O)[C@H](Cc2ccccc2)NC1=O` [AIP A1V, V-(C-F-M-F-V)] (H-VCFMFV; thioester 2-C; N-terminus assumed), for which the Emax under setting [1] came out at 109%. Besides, for the setting “ΔagrD reporter”, the “agonism activity (in words)” value is on record as “maintained the full activity of the parent AIP with enhanced potency”.
On to `CC(C)C[C@@H]1NC(=O)[C@H](CO)NC(=O)[C@H](CO)NC(=O)[C@@H](NC(=O)[C@H](C)NC(=O)[C@H](CC(N)=O)NC(=O)[C@@H](NC(=O)CN)C(C)C)CSC(=O)[C@H](Cc2ccccc2)NC1=O` [Sa AIP-II, G-V-N-A-(C-S-S-L-F), reference compound] (H-GVNACSSLF; thioester 5-C), for which the Emax (read-out: Max Activation) stood at 12%.
The same measure, in the same setting: the value for `CC(C)C[C@@H]1NC(=O)CNC(=O)[C@H](C(C)C)NC(=O)[C@@H](NC(=O)[C@@H](N)CO)CSC(=O)[C@H](CO)NC1=O` [L. kieliensis AIP, S-(C-V-G-L-S), reference compound] (H-SCVGLS; thioester 2-C; N-terminus assumed) was 10.4%; that for `CSCC[C@@H]1NC(=O)[C@H](Cc2ccccc2)NC(=O)[C@@H](NC(=O)[C@H](C)NC(=O)[C@H](CCCCN)NC(=O)[C@H](CO)NC(=O)[C@H](CCSC)NC(=O)[C@H](CO)NC(=O)[C@@H](N)CO)CSC(=O)[C@H](C(C)C)NC(=O)[C@H](Cc2ccccc2)NC1=O` [Compound 11-mer, S-S-M-S-K-A-(C-F-M-F-V)] (H-SSMSKACFMFV; thioester 7-C; N-terminus assumed) was 111%.
Regarding `CSCC[C@@H]1NC(=O)[C@H](Cc2ccccc2)NC(=O)[C@@H](NC(=O)[C@@H](N)CCCCN)CSC(=O)[C@H](C(C)C)NC(=O)[C@H](Cc2ccccc2)NC1=O` [AIP A1K, K-(C-F-M-F-V)] (H-KCFMFV; thioester 2-C; N-terminus assumed), the Emax under setting [1] amounted to 80%. Moreover, the “agonism activity (in words)” value (ΔagrD reporter) was “partial agonists with slightly diminished agonistic activity”.
Turning to `CC[C@H](C)[C@H](N)C(=O)N[C@@H](CC(N)=O)C(=O)N[C@H]1CSC(=O)[C@H](CC(C)C)NC(=O)[C@H](CC(C)C)NC(=O)[C@H](Cc2ccccc2)NC(=O)[C@H](C)NC1=O` [Sa AIP-III D4A, I-N-(C-A-F-L-L), reference compound] (H-INCAFLL; thioester 3-C), the Emax (read-out: Max Activation) is 12.3%.
Same read-out and setting: the value for `CSCC[C@@H]1NC(=O)[C@H](CO)NC(=O)[C@@H](NC(=O)[C@H](C)N)CSC(=O)[C@H](C)NC(=O)[C@H](Cc2ccccc2)NC1=O` [L. grayi AIP, A-(C-S-M-F-A), reference compound] (H-ACSMFA; thioester 2-C; N-terminus assumed) was 10.7%.
For the compound `CSCC[C@H]1NC(=O)[C@H](Cc2ccccc2)NC(=O)[C@H](NC(=O)[C@H](C)N)CSC(=O)[C@H](C(C)C)NC(=O)[C@H](Cc2ccccc2)NC1=O` [AIP C2dC/M4dM, A-(dC-F-dM-F-V)] (H-A[dC]F[dM]FV; thioester 2-C; N-terminus assumed), the Emax under setting [1] was found to be 35.7%.
